Results: PubChem BioAssay (NCI)
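Five compound concentrations were applied to cells in 96-well plates for 48 hours; endpoints were derived by simple linear interpolation of the resulting dose-response curve. Definition used: TGI = concentration required for complete inhibition of growth.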

Legend:
Experiment in all cases: NCI tumour cell line growth inhibition, 48 h
KM20L2 colon = test system: KM20L2 colon
HCC-2998 colon = test system: HCC-2998 colon
SK-MEL-2 melanoma = test system: SK-MEL-2 melanoma
LOX IMVI melanoma = test system: LOX IMVI melanoma
T-47D breast = test system: T-47D breast
RPMI-8226 leukemia = test system: RPMI-8226 leukemia
OVCAR-3 ovarian = test system: OVCAR-3 ovarian
KM12 colon = test system: KM12 colon
MOLT-4 leukemia = test system: MOLT-4 leukemia
NCI-H226 lung = test system: NCI-H226 lung
SF-295 CNS = test system: SF-295 CNS
DLD-1 colon = test system: DLD-1 colon
CAKI-1 renal = test system: CAKI-1 renal
RXF 393 renal = test system: RXF 393 renal
HCT-15 colon = test system: HCT-15 colon
ACHN renal = test system: ACHN renal
NCI-H23 lung = test system: NCI-H23 lung
K-562 leukemia = test system: K-562 leukemia
EKVX NSCLC = test system: EKVX NSCLC
M14 melanoma = test system: M14 melanoma
SF-539 CNS = test system: SF-539 CNS
SK-OV-3 ovarian = test system: SK-OV-3 ovarian
U251 CNS = test system: U251 CNS
A549 NSCLC = test system: A549 NSCLC
HL-60(TB) leukemia = test system: HL-60(TB) leukemia
SNB-19 CNS = test system: SNB-19 CNS
BT-549 breast = test system: BT-549 breast
TK-10 renal = test system: TK-10 renal
SNB-75 CNS = test system: SNB-75 CNS
SN12C renal = test system: SN12C renal
NCI-H460 lung = test system: NCI-H460 lung
UO-31 renal = test system: UO-31 renal
PC-3 prostate = test system: PC-3 prostate
OVCAR-4 ovarian = test system: OVCAR-4 ovarian
UACC-62 melanoma = test system: UACC-62 melanoma
HS 578T breast = test system: HS 578T breast
DMS 114 small cell lung = test system: DMS 114 small cell lung
SW-620 colon = test system: SW-620 colon
HOP-62 NSCLC = test system: HOP-62 NSCLC
NCI-H522 lung = test system: NCI-H522 lung
MDA-MB-435 = test system: MDA-MB-435
M19-MEL melanoma = test system: M19-MEL melanoma
786-0 renal = test system: 786-0 renal
HCT-116 colon = test system: HCT-116 colon
DU-145 prostate = test system: DU-145 prostate
MDA-MB-231 breast = test system: MDA-MB-231 breast
MCF7 breast = test system: MCF7 breast
COLO 205 colon = test system: COLO 205 colon
NCI/ADR-RES ovarian = test system: NCI/ADR-RES ovarian
A498 renal = test system: A498 renal
OVCAR-8 ovarian = test system: OVCAR-8 ovarian
MDA-N = test system: MDA-N
SK-MEL-28 melanoma = test system: SK-MEL-28 melanoma
SF-268 CNS = test system: SF-268 CNS
OVCAR-5 ovarian = test system: OVCAR-5 ovarian
HT29 colon = test system: HT29 colon
CCRF-CEM leukemia = test system: CCRF-CEM leukemia
MALME-3M melanoma = test system: MALME-3M melanoma
XF 498 CNS = test system: XF 498 CNS
SNB-78 CNS = test system: SNB-78 CNS
SK-MEL-5 melanoma = test system: SK-MEL-5 melanoma
SR leukemia = test system: SR leukemia
HOP-92 NSCLC = test system: HOP-92 NSCLC
UACC-257 melanoma = test system: UACC-257 melanoma
DMS 273 small cell lung = test system: DMS 273 small cell lung
HOP-18 NSCLC = test system: HOP-18 NSCLC
LXFL 529 NSCLC = test system: LXFL 529 NSCLC
IGROV1 ovarian = test system: IGROV1 ovarian
RXF-631 renal = test system: RXF-631 renal

Structure (SMILES): CCNC(=O)/C(=C/c1ccc(OC)cc1)c1cc(OC)c(OC)c(OC)c1
- TGI (KM20L2 colon): 13.5 µM
- TGI (HCC-2998 colon): > 39.3 µM
- TGI (SK-MEL-2 melanoma): > 100 µM
- TGI (LOX IMVI melanoma): > 100 µM
- TGI (T-47D breast): > 100 µM
- TGI (RPMI-8226 leukemia): > 100 µM
- TGI (OVCAR-3 ovarian): 15 µM
- TGI (KM12 colon): > 100 µM
- TGI (MOLT-4 leukemia): > 100 µM
- TGI (NCI-H226 lung): 88.7 µM
- TGI (SF-295 CNS): 19.6 µM
- TGI (DLD-1 colon): > 100 µM
- TGI (CAKI-1 renal): > 100 µM
- TGI (RXF 393 renal): 11.2 µM
- TGI (HCT-15 colon): > 100 µM
- TGI (ACHN renal): > 100 µM
- TGI (NCI-H23 lung): > 85.3 µM
- TGI (K-562 leukemia): > 100 µM
- TGI (EKVX NSCLC): > 100 µM
- TGI (M14 melanoma): > 100 µM
- TGI (SF-539 CNS): 45.9 µM
- TGI (SK-OV-3 ovarian): > 100 µM
- TGI (U251 CNS): 70 µM
- TGI (A549 NSCLC): > 100 µM
- TGI (HL-60(TB) leukemia): 21.9 µM
- TGI (SNB-19 CNS): > 100 µM
- TGI (BT-549 breast): > 100 µM
- TGI (TK-10 renal): > 69.7 µM
- TGI (SNB-75 CNS): > 73.4 µM
- TGI (SN12C renal): > 100 µM
- TGI (NCI-H460 lung): 57 µM
- TGI (UO-31 renal): > 100 µM
- TGI (PC-3 prostate): > 100 µM
- TGI (OVCAR-4 ovarian): > 100 µM
- TGI (UACC-62 melanoma): > 100 µM
- TGI (HS 578T breast): > 42.2 µM
- TGI (DMS 114 small cell lung): > 57 µM
- TGI (SW-620 colon): > 100 µM
- TGI (HOP-62 NSCLC): > 100 µM
- TGI (NCI-H522 lung): 20.8 µM
- TGI (MDA-MB-435): > 20.5 µM
- TGI (M19-MEL melanoma): > 100 µM
- TGI (786-0 renal): > 100 µM
- TGI (HCT-116 colon): > 100 µM
- TGI (DU-145 prostate): 80.2 µM
- TGI (MDA-MB-231 breast): > 86.1 µM
- TGI (MCF7 breast): > 100 µM
- TGI (COLO 205 colon): 24.8 µM
- TGI (NCI/ADR-RES ovarian): > 28 µM
- TGI (A498 renal): > 63.8 µM
- TGI (OVCAR-8 ovarian): > 100 µM
- TGI (MDA-N): 4.26 µM
- TGI (SK-MEL-28 melanoma): > 100 µM
- TGI (SF-268 CNS): > 100 µM
- TGI (OVCAR-5 ovarian): > 100 µM
- TGI (HT29 colon): 65.4 µM
- TGI (CCRF-CEM leukemia): > 100 µM
- TGI (MALME-3M melanoma): > 100 µM
- TGI (XF 498 CNS): 85.3 µM
- TGI (SNB-78 CNS): > 100 µM
- TGI (SK-MEL-5 melanoma): > 53.9 µM
- TGI (SR leukemia): > 100 µM
- TGI (HOP-92 NSCLC): > 96.6 µM
- TGI (UACC-257 melanoma): > 100 µM
- TGI (DMS 273 small cell lung): > 100 µM
- TGI (HOP-18 NSCLC): > 100 µM
- TGI (LXFL 529 NSCLC): > 100 µM
- TGI (IGROV1 ovarian): > 100 µM
- TGI (RXF-631 renal): > 100 µM
